Laboratory results from PMC7346217, “Insight of Polyphenol Oxidase Enzyme Inhibition and Total Polyphenol Recovery from Cocoa Beans” (Antioxidants, 2020).

Test system: T1, polyphenol oxidase (PPO) from cocoa beans
T1 construct: native; isoenzyme not identified
Experiment: spectrophotometric oxidation ([…] nm), Michaelis-Menten nonlinear regression
Assay type: biochemical, Theobroma cacao
Conditions: crude extract of non-treated beans; McIlvaine buffer pH 6.5; 35 °C; substrate 5-200 mM

Km [µM]	Compound
1450 ± 350	Oc1cc(O)c2c(c1)O[C@H](c1ccc(O)c(O)c1)[C@@H](O)C2 [(+)-catechin]
1260 ± 370	Oc1cc(O)c2c(c1)O[C@H](c1ccc(O)c(O)c1)[C@H](O)C2 [(−)-epicatechin]

Compound	Km [µM]
Oc1ccccc1O [catechol]	610 ± 120
